Results: ChEMBL document CHEMBL1143853, “Daptomycin nonsusceptibility in Staphylococcus aureus with reduced vancomycin susceptibility is independent of alterations in MprF” (2007)
Converted amounts (≈) assume the structure as drawn.

Legend:
Staphylococcus aureus [1] = test: Antimicrobial activity against methicillin-resistant Staphylococcus aureus A8090 by agar dilution method
Staphylococcus aureus [2] = test: Antimicrobial activity against methicillin-resistant Staphylococcus aureus A8094 by agar dilution method; format: functional
Staphylococcus aureus [3] = test: Antimicrobial activity against methicillin-resistant Staphylococcus aureus A6224 by agar dilution method
Staphylococcus aureus [4] = test: Antimicrobial activity against methicillin-resistant Staphylococcus aureus A6226 by agar dilution method; format: functional
Staphylococcus aureus [5] = test: Antimicrobial activity against methicillin-resistant Staphylococcus aureus A6300 by agar dilution method; format: functional
Staphylococcus aureus [6] = test: Antimicrobial activity against methicillin-resistant Staphylococcus aureus A6298 by agar dilution method; format: functional
Staphylococcus aureus [7] = test: Antimicrobial activity against methicillin-resistant Staphylococcus aureus A8796 by agar dilution method
Staphylococcus aureus [8] = test: Antimicrobial activity against methicillin-resistant Staphylococcus aureus A8799 with mprF S337L mutation by agar dilution method; format: functional

Q: For `CCCCCCCCCC(=O)N[C@@H](Cc1c[nH]c2ccccc12)C(=O)N[C@H](CC(N)=O)C(=O)N[C@@H](CC(=O)O)C(=O)N[C@@H]1C(=O)NCC(=O)N[C@@H](CCCN)C(=O)N[C@@H](CC(=O)O)C(=O)N[C@H](C)C(=O)N[C@@H](CC(=O)O)C(=O)NCC(=O)N[C@H](CO)C(=O)N[C@@H]([C@H](C)CC(=O)O)C(=O)N[C@@H](CC(=O)c2ccccc2N)C(=O)O[C@@H]1C`, which MIC (Staphylococcus aureus [1]) is on record?
A: The MIC was 0.5 mg/L (≈ 0.309 µM).

Q: What about the MIC (Staphylococcus aureus [2]) of the same compound?
A: The MIC was 2 mg/L (≈ 1.23 µM).

Q: What about the MIC (Staphylococcus aureus [3]) of the same compound?
A: The MIC was 0.5 mg/L (≈ 0.309 µM).

Q: And the MIC (Staphylococcus aureus [4])?
A: The MIC was 2 mg/L (≈ 1.23 µM).

Q: And the MIC (Staphylococcus aureus [5])?
A: Its MIC is 1 mg/L (≈ 0.617 µM).

Q: What about the MIC (Staphylococcus aureus [6]) of the same compound?
A: Its MIC is 2 mg/L (≈ 1.23 µM).

Q: And the MIC (Staphylococcus aureus [7])?
A: The MIC was 0.5 mg/L (≈ 0.309 µM).

Q: And the MIC (Staphylococcus aureus [8])?
A: The MIC was 2 mg/L (≈ 1.23 µM).
